Columns and labels:
[1] = test system: hematopoietic progenitor cells; assay: Hematopoietic progenitor clonogenic assays (CFU-GEMM, BFU-e, CFU-GM); assay type: cell-based, human; settings: for Pro-hematopoiesis in vitro Enhancement: relative increase of hematopoietic colony cell number, hCG preparations 200 IU/ml, subunits and peptides 100 μg/ml
Method in brief: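 Normal bone marrow and cord blood progenitors (2×10^5 cells/ml) grown in methylcellulose with hCG preparations at 200 IU/ml or α/β-subunits and peptides at 100 μg/ml. Colonies (aggregates >50 cells) counted after 10 days of culture.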

[2] = test system: lung cancer cells; assay: Clonogenic assay, lung cancer cells; assay type: cell-based; settings: compared to PBS alone
Procedure: The hCG preparations, fractions of the early pregnancy urine and hCG APL™ SUPERDEX™ 200 fractionations (described herein), and certain β-hCG peptides were tested on prostate, lung, breast, and kidney cancer cells in vitro, and on prostate tumors in nude mice. […] The preparations fractions and peptides were also assayed using a clonogenic assay in which cells were seeded in methylcellulose in the presence or absence of test substance and then colonies were counted after a certain period of time. Cells were also examined for apoptosis by confocal microscopy.

[3] = test system: HIV-1 transgenic mice; assay: Survival, growth and weight of HIV-1 transgenic mouse pups; assay type: in vivo; settings: HIV-1 transgenic pups
Procedure: (§1) The HIV-1 transgenic mice used for this study contain 7.4 kb of foreign DNA, including 5.1 kb of the HIV-1 proviral genome deleted in the gag and pol genes and 2.3 kb of vector (Dickie et al., 1991, Virology 185:109-119). […] In addition, these mice develop severe hyperkeratotic skin lesions with marked expression of gp 120 and nef genes (Kopp et al., 1993, AIDS Res. Hum. Retroviruses 9:267-275; Vasli et al., 1994, AIDS Res. Hum. Retroviruses 10:1241-1250).
(§2) Finally, certain fractions were tested for their ability to increase survival, promote weight gain and reduce HIV-1 gene expression in HIV-1 transgenic mice as described herein.
HIV-I transgenic pups administered hCG and hCG-related preparations for the first 5 days after birth through the mothers milk were monitored for survival at 10 days after birth.

[4] = test system: KS Y-1 and KS-SLK cells; assay: Kaposi's Sarcoma clonogenic assay in cultured cells; assay type: cell-based, human; settings: for inhibition of KS cell growth in clonogenic assays (in words): KS Y-1 and KS SLK; for KS in vitro: inhibition of Kaposi's Sarcoma cell growth in vitro in cultured cells
Method in brief: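 KS Y-1 or KS-SLK cells, 5×10^4 seeded in 0.8% methylcellulose, grown 10 days with or without hCG, β-hCG or β-hCG peptide preparations; well-formed colonies counted in triplicate wells.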

[5] = test system: Kaposi's Sarcoma induced in mice; assay: Kaposi's Sarcoma tumors induced in mice by KS Y-1 cells; assay type: in vivo; settings: for KS in vivo: inhibition of Kaposi's Sarcoma induced in mice; for effect on KS tumors in mice (in words): mouse, in vivo
Procedure: The effects of the peptides on KS tumor cells were also evaluated in vivo in the KS mouse model. To induce KS tumors in the mice, 1×10^6/ml KS Y-1 cells in 50 μl PBS or saline were injected subcutaneously into immunodeficient mice (beige-XID-BNX mice). […] Methods for detection of apoptosis (from tissue biopsies) were used, as described in Lunardi-Iskandar et al.(1995, Nature 375:64-68). Briefly, the samples were stained in situ for the presence of cells with DNA fragmentation. Tissue slides from formalin-fixed tumors were treated with terminal deoxynucleotide transferase for extension of DNA ends (hydroxyl 3′) and incorporation of digoxigenin-11-dUTP according to the manufacturer's instructions (Oncor, Gaithersburg, Md.). Anti-digoxigenin antibody conjugated with the enzyme peroxidase allowed detection of apoptotic cells, which stain brown, whereas viable cells stain blue.
Certain fractions were tested for activity in reducing Kaposi's Sarcoma lesions in the Kaposi's Sarcoma mouse model as described herein. In this assay, starting one week after injection of the KS Y-1 cells to induce Kaposi's sarcoma formation, the mice were injected subcutaneously with 100 IU hCG. […] After one week of the week of treatment with the hCG fractions, the KS lesions were examined for cell apoptosis and regression as described herein.
Certain fractions of the APL™ hCG and early pregnancy urine were assayed for their ability to elicit apoptosis in Kaposi's Sarcoma lesions induced by injection of KS Y-1 cells in mice (n=3 mice for each treatment). The mice were administered 100 μl subcutaneously of the particular fraction each day for one week.

[6] = test system: HIV-1; settings: for HIV in vitro Inhibition: inhibition of HIV-1 replication in vitro (HIV-1 strains and HIV-1 primary isolates)
[7] = test system: HIV RNA and protein expression; assay: HIV RNA and protein expression in HIV-1 transgenic mice; assay type: in vivo; settings: for inhibition of HIV RNA and protein expression: inhibition of HIV RNA and protein expression in HIV-1 transgenic mice
From the text: as §1
Heterozygous transgenic mothers were treated with the hCG preparation subcutaneously twice weekly. Pups received hCG via the mother's milk.
Gene expression was assayed in total RNA extracted from the skin of Tg26 mice with RNAzol. One microgram of RNA was reverse transcribed into cDNA using random hexamer primers and […] reverse transcriptase (Life Technologies, MD) in a final volume of 30 μl. One tenth of the cDNA reactions were used for PCR amplification of various HIV gene sequences (env, tat, rev, nef and vif). In addition, glyceraldehyde 3-phosphate dehydrogenase (GAPHD) mRNA was amplified for each sample for normalization. Following 25 cycles of amplification, 10% of the PCR product was resolved by electrophoresis through 2% agarose gels and processed for Southern hybridization using FITC-labeled oligonucleotide probes complimentary to internal sequences of the amplicons. Detection was performed by chemiluminescence (Amersham) and relative mRNA levels determined by densitometry after normalization with GAPDH mRNA levels.
as §2

| Substance | promotion of hematopoiesis (in words) [1] | Pro-hematopoiesis in vitro Enhancement [1] | colony formation [2] | weight gain / growth retardation and cachexia [3] | inhibition of KS cell growth in clonogenic assays (in words) [4] | KS in vitro [4] | KS in vivo [5] | effect on KS tumors in mice (in words) [5] | inhibition of HIV-1 infection/replication in vitro (in words) [6] | HIV in vitro Inhibition [6] | inhibition of HIV RNA and protein expression [7] | HIV-1 gene / protein expression in transgenic mice (in words) ([7]; pups dosed via mother's milk) |
| --- | --- | --- | --- | --- | --- | --- | --- | --- | --- | --- | --- | --- |
| 3. 45-57: β-hCG amino acids 45-57 (SEQ ID NO:6) (LQGVLPALPQVVC) | directly promoted | ++ (“++” represents greater than 40% effect) | inhibited colony formation | higher weight gain than untreated mice | strongest anti-tumor effects | ++ (“++” represents greater than 40% effect) | ++ (“++” represents greater than 40% effect) | extensive cell death | inhibit HIV-1 replication in vitro | ++ (“++” represents greater than 40% effect) | ++ (“++” represents greater than 40% effect) | considerable inhibition |
| 6. 45-57::109-119: β-hCG 45-57 linked at the C-terminus to the N-terminus of 109-119 (SEQ ID NO:30) (LQGVLPALPQVVCTCDDPRFQDSS) | directly promoted | ++ (“++” represents greater than 40% effect) | inhibited colony formation |  | strongest anti-tumor effects | ++ (“++” represents greater than 40% effect) | ++ (“++” represents greater than 40% effect) | significant anti-KS activity | inhibit HIV-1 replication in vitro | ++ (“++” represents greater than 40% effect) | ++ (“++” represents greater than 40% effect) |  |

Source: patent publication US6699834B1, “Method for treating cancer” (University of Maryland Biotechnology Institute, priority 1997, dated 2004)
